According to ChEMBL document CHEMBL1201862, “PubChem BioAssay data set” (2004):
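Results reflect a 48-hour exposure of cells in 96-well plates to compound at five concentrations. Abbreviation: GI50, concentration required for 50% inhibition of growth.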 Activity calls are given as the source filed them. Rule as the data show it: active = GI50 up to about 1.1 µM and inactive = higher.

How the values were obtained:
Test in all cases: inhibition of tumour cell growth, NCI panel, 48 h
SW-620 = tested on: SW-620
OVCAR-8 = tested on: OVCAR-8
SK-OV-3 = tested on: SK-OV-3
ACHN = tested on: ACHN
RPMI-8226 = tested on: RPMI-8226
RXF 393 = tested on: RXF 393
SNB-75 = tested on: SNB-75
EKVX = tested on: EKVX
CAKI-1 = tested on: CAKI-1
SK-MEL-5 = tested on: SK-MEL-5
MOLT-4 = tested on: MOLT-4
SK-MEL-2 = tested on: SK-MEL-2
COLO 205 = tested on: COLO 205
OVCAR-5 = tested on: OVCAR-5
UACC-257 = tested on: UACC-257
KM12 = tested on: KM12
SNB-19 = tested on: SNB-19
SNB-78 = tested on: SNB-78
SF-295 = tested on: SF-295
K562 = tested on: K562
HCC 2998 = tested on: HCC 2998
SN12C = tested on: SN12C
HCT-116 = tested on: HCT-116
OVCAR-3 = tested on: OVCAR-3
UACC-62 = tested on: UACC-62
UO-31 = tested on: UO-31
TK-10 = tested on: TK-10
HCT-15 = tested on: HCT-15
DMS-273 = tested on: DMS-273
Malme-3M = tested on: Malme-3M
IGROV-1 = tested on: IGROV-1
NCI-H522 = tested on: NCI-H522
A549 = tested on: A549
LXFL 529 = tested on: LXFL 529
NCI-H23 = tested on: NCI-H23
KM-20L2 = tested on: KM-20L2
SK-MEL-28 = tested on: SK-MEL-28
DMS-114 = tested on: DMS-114
HT-29 = tested on: HT-29
SR = tested on: SR
OVCAR-4 = tested on: OVCAR-4
U-251 = tested on: U-251
SF-539 = tested on: SF-539
HOP-92 = tested on: HOP-92
SF-268 = tested on: SF-268
M19-MEL = tested on: M19-MEL
786-0 = tested on: 786-0
NCI-H226 = tested on: NCI-H226

O=c1[nH]c(C2CCCCC2)nc2cc(Cl)ccc12
GI50 (SW-620): > 100 µM (inactive)
GI50 (OVCAR-8): > 100 µM (inactive)
GI50 (SK-OV-3): > 100 µM (inactive)
GI50 (ACHN): > 100 µM (inactive)
GI50 (RPMI-8226): > 100 µM (inactive)
GI50 (RXF 393): 45.6 µM (inactive)
GI50 (SNB-75): 55.6 µM (inactive)
GI50 (EKVX): > 100 µM (inactive)
GI50 (CAKI-1): > 100 µM (inactive)
GI50 (SK-MEL-5): > 100 µM (inactive)
GI50 (MOLT-4): > 100 µM (inactive)
GI50 (SK-MEL-2): > 100 µM (inactive)
GI50 (COLO 205): > 100 µM (inactive)
GI50 (OVCAR-5): > 100 µM (inactive)
GI50 (UACC-257): > 100 µM (inactive)
GI50 (KM12): > 100 µM (inactive)
GI50 (SNB-19): > 100 µM (inactive)
GI50 (SNB-78): > 100 µM (inactive)
GI50 (SF-295): 92.7 µM (inactive)
GI50 (K562): > 100 µM (inactive)
GI50 (HCC 2998): > 100 µM (inactive)
GI50 (SN12C): > 100 µM (inactive)
GI50 (HCT-116): > 100 µM (inactive)
GI50 (OVCAR-3): > 100 µM (inactive)
GI50 (UACC-62): > 100 µM (inactive)
GI50 (UO-31): 58.2 µM (inactive)
GI50 (TK-10): > 100 µM (inactive)
GI50 (HCT-15): > 100 µM
GI50 (DMS-273): > 100 µM (inactive)
GI50 (Malme-3M): > 100 µM (inactive)
GI50 (IGROV-1): > 100 µM (inactive)
GI50 (NCI-H522): > 100 µM (inactive)
GI50 (A549): > 100 µM (inactive)
GI50 (LXFL 529): > 100 µM (inactive)
GI50 (NCI-H23): > 100 µM (inactive)
GI50 (KM-20L2): > 100 µM (inactive)
GI50 (SK-MEL-28): > 100 µM (inactive)
GI50 (DMS-114): > 100 µM (inactive)
GI50 (HT-29): > 100 µM (inactive)
GI50 (SR): > 100 µM (inactive)
GI50 (OVCAR-4): 67.3 µM (inactive)
GI50 (U-251): > 100 µM (inactive)
GI50 (SF-539): > 100 µM (inactive)
GI50 (HOP-92): 44 µM (inactive)
GI50 (SF-268): > 100 µM (inactive)
GI50 (M19-MEL): > 100 µM (inactive)
GI50 (786-0): 70 µM (inactive)
GI50 (NCI-H226): > 100 µM (inactive)
